According to ChEMBL document CHEMBL3227948, “Preparation and antidiabetic activity of some sulfonylurea derivatives of 3,5-disubstituted pyrazoles” (1979):

What follows are compounds tested on Mus musculus (assay: Hypoglycemic activity in alloxan-induced diabetic albino mouse assessed as decrease in blood glucose level at 1 mmol/kg, po administered 6 days after alloxan injection measured after 1 to 3 hrs by automated glucose oxidase method relative to control).
Format: functional
For `Cc1cc(C)n(-c2ccc(S(=O)(=O)N3CCC(=O)N(Cc4ccccc4)C3=S)cc2)n1`, the inhibition in vivo at 1000 µmol/kg was 18%. Compound `CCN1C(=O)CCN(S(=O)(=O)c2ccc(-n3nc(C)cc3C)cc2)C1=S` has an inhibition in vivo at 1000 µmol/kg of 4%. For `CCCN1C(=O)CCN(S(=O)(=O)c2ccc(-n3nc(C)cc3C)cc2)C1=S`, the inhibition in vivo at 1000 µmol/kg was 1%. `CCCCN1C(=O)CCN(S(=O)(=O)c2ccc(-n3nc(C)cc3C)cc2)C1=S` gave an inhibition in vivo at 1000 µmol/kg of 1%. Compound `Cc1cc(C)n(-c2ccc(S(=O)(=O)N3CCC(=O)N(C4CCCCC4)C3=S)cc2)n1` has an inhibition in vivo at 1000 µmol/kg of 4%. `Cc1cc(C)n(-c2ccc(S(=O)(=O)N3CCC(=O)N(c4ccccc4)C3=S)cc2)n1` gave an inhibition in vivo at 1000 µmol/kg of under 1%. `CCN1C(=O)CCN(S(=O)(=O)c2ccc(-n3nc(C(=O)O)cc3C)cc2)C1=S` was tested, and the inhibition in vivo at 1000 µmol/kg was 1%. In the case of `C=CCN1C(=O)CCN(S(=O)(=O)c2ccc(-n3nc(C(=O)O)cc3C)cc2)C1=S`, the inhibition in vivo at 1000 µmol/kg is reported as 0%. For `CCCN1C(=O)CCN(S(=O)(=O)c2ccc(-n3nc(C(=O)O)cc3C)cc2)C1=S`, the inhibition in vivo at 1000 µmol/kg was under 1%. `CCCCN1C(=O)CCN(S(=O)(=O)c2ccc(-n3nc(C(=O)O)cc3C)cc2)C1=S` gave an inhibition in vivo at 1000 µmol/kg of 2%. Compound `Cc1cc(C(=O)O)nn1-c1ccc(S(=O)(=O)N2CCC(=O)N(C3CCCCC3)C2=S)cc1` has an inhibition in vivo at 1000 µmol/kg of 2%. `Cc1cc(C(=O)O)nn1-c1ccc(S(=O)(=O)N2CCC(=O)N(Cc3ccccc3)C2=S)cc1` was tested, and the inhibition in vivo at 1000 µmol/kg was 16%. For `Cc1cc(C(=O)O)nn1-c1ccc(S(=O)(=O)N2CCC(=O)N(c3ccccc3)C2=S)cc1`, the inhibition in vivo at 1000 µmol/kg was 1%. With `N=C(N)NC(=N)NCCc1ccccc1` [PHENFORMIN] the inhibition in vivo at 1000 µmol/kg was 21%.

These compounds were tested on Mus musculus (assay: Hypoglycemic activity in alloxan-induced diabetic albino mouse assessed as decrease in blood glucose level at 1 mmol/kg, po administered 6 days after alloxan injection measured after 2 to 4 hrs by automated glucose oxidase method relative to control).
Format: functional
Work on `CCN1C(=O)CN(S(=O)(=O)c2ccc(-n3nc(C)cc3C)cc2)C1=S` yielded an inhibition in vivo at 1000 µmol/kg of under 1%. `CCCN1C(=O)CN(S(=O)(=O)c2ccc(-n3nc(C)cc3C)cc2)C1=S` was tested, and the inhibition in vivo at 1000 µmol/kg was under 1%. With `CCCCN1C(=O)CN(S(=O)(=O)c2ccc(-n3nc(C)cc3C)cc2)C1=S` the inhibition in vivo at 1000 µmol/kg was 1%. Work on `Cc1cc(C)n(-c2ccc(S(=O)(=O)N3CC(=O)N(C4CCCCC4)C3=S)cc2)n1` yielded an inhibition in vivo at 1000 µmol/kg of 2%. Compound `Cc1cc(C)n(-c2ccc(S(=O)(=O)N3CC(=O)N(Cc4ccccc4)C3=S)cc2)n1` has an inhibition in vivo at 1000 µmol/kg of 1%. Work on `Cc1cc(C)n(-c2ccc(S(=O)(=O)N3CC(=O)N(c4ccccc4)C3=S)cc2)n1` yielded an inhibition in vivo at 1000 µmol/kg of 8%. With `CCN1C(=O)CN(S(=O)(=O)c2ccc(-n3nc(C(=O)O)cc3C)cc2)C1=S` the inhibition in vivo at 1000 µmol/kg was under 1%. `C=CCN1C(=O)CN(S(=O)(=O)c2ccc(-n3nc(C(=O)O)cc3C)cc2)C1=S` showed an inhibition in vivo at 1000 µmol/kg of under 1%. `CCCN1C(=O)CN(S(=O)(=O)c2ccc(-n3nc(C(=O)O)cc3C)cc2)C1=S` was tested, and the inhibition in vivo at 1000 µmol/kg was 1%. For `CCCCN1C(=O)CN(S(=O)(=O)c2ccc(-n3nc(C(=O)O)cc3C)cc2)C1=S`, the inhibition in vivo at 1000 µmol/kg was 1%. In the case of `Cc1cc(C(=O)O)nn1-c1ccc(S(=O)(=O)N2CC(=O)N(C3CCCCC3)C2=S)cc1`, the inhibition in vivo at 1000 µmol/kg is reported as 1%. In the case of `Cc1cc(C(=O)O)nn1-c1ccc(S(=O)(=O)N2CC(=O)N(Cc3ccccc3)C2=S)cc1`, the inhibition in vivo at 1000 µmol/kg is reported as under 1%. Work on `C=CCN1C(=O)CN(S(=O)(=O)c2ccc(-n3nc(C)cc3C)cc2)C1=S` yielded an inhibition in vivo at 1000 µmol/kg of 4%. `N=C(N)NC(=N)NCCc1ccccc1` [PHENFORMIN] showed an inhibition in vivo at 1000 µmol/kg of 21%.

These compounds were tested on Mus musculus (assay: Hypoglycemic activity in alloxan-induced diabetic albino mouse assessed as decrease in blood glucose level at 0.4 mmol/kg, po administered 6 days after alloxan injection measured after 2 to 4 hrs by automated glucose oxidase method relative to control).
Format: functional
`CCNC(=O)NS(=O)(=O)c1ccc(-n2nc(C)cc2C)cc1` gave an inhibition in vivo at 400 µmol/kg of under 1%. For `CCCNC(=O)NS(=O)(=O)c1ccc(-n2nc(C)cc2C)cc1`, the inhibition in vivo at 400 µmol/kg was under 1%. `CCCCNC(=O)NS(=O)(=O)c1ccc(-n2nc(C)cc2C)cc1` showed an inhibition in vivo at 400 µmol/kg of 2%. Compound `Cc1cc(C)n(-c2ccc(S(=O)(=O)NC(=O)NC3CCCCC3)cc2)n1` has an inhibition in vivo at 400 µmol/kg of 10%. `Cc1cc(C)n(-c2ccc(S(=O)(=O)NC(=O)NCc3ccccc3)cc2)n1` showed an inhibition in vivo at 400 µmol/kg of under 1%. For `Cc1cc(C)n(-c2ccc(S(=O)(=O)NC(=O)NNC(=N)N)cc2)n1`, the inhibition in vivo at 400 µmol/kg was 3%. `CCNC(=O)NS(=O)(=O)c1ccc(-n2nc(C(=O)O)cc2C)cc1` was tested, and the inhibition in vivo at 400 µmol/kg was 0%. `CCCNC(=O)NS(=O)(=O)c1ccc(-n2nc(C(=O)O)cc2C)cc1` was tested, and the inhibition in vivo at 400 µmol/kg was 1%. Work on `CCCCNC(=O)NS(=O)(=O)c1ccc(-n2nc(C(=O)O)cc2C)cc1` yielded an inhibition in vivo at 400 µmol/kg of 2%. `Cc1cc(C(=O)O)nn1-c1ccc(S(=O)(=O)NC(=O)NC2CCCCC2)cc1` gave an inhibition in vivo at 400 µmol/kg of 1%. In the case of `Cc1cc(C(=O)O)nn1-c1ccc(S(=O)(=O)NC(=O)NCc2ccccc2)cc1`, the inhibition in vivo at 400 µmol/kg is reported as 0%. `CCNC(=S)NS(=O)(=O)c1ccc(-n2nc(C)cc2C)cc1` gave an inhibition in vivo at 400 µmol/kg of 0%. `C=CCNC(=S)NS(=O)(=O)c1ccc(-n2nc(C)cc2C)cc1` was tested, and the inhibition in vivo at 400 µmol/kg was -1%. `CCCNC(=S)NS(=O)(=O)c1ccc(-n2nc(C)cc2C)cc1` was tested, and the inhibition in vivo at 400 µmol/kg was under 1%. `CCCCNC(=S)NS(=O)(=O)c1ccc(-n2nc(C)cc2C)cc1` showed an inhibition in vivo at 400 µmol/kg of 1%. `Cc1cc(C)n(-c2ccc(S(=O)(=O)NC(=S)NC3CCCCC3)cc2)n1` was tested, and the inhibition in vivo at 400 µmol/kg was under 2%. Compound `Cc1cc(C)n(-c2ccc(S(=O)(=O)NC(=S)NCc3ccccc3)cc2)n1` has an inhibition in vivo at 400 µmol/kg of 0%. Work on `Cc1cc(C)n(-c2ccc(S(=O)(=O)NC(=S)Nc3ccccc3)cc2)n1` yielded an inhibition in vivo at 400 µmol/kg of -3%. Compound `CCNC(=S)NS(=O)(=O)c1ccc(-n2nc(C(=O)O)cc2C)cc1` has an inhibition in vivo at 400 µmol/kg of -2%. Compound `C=CCNC(=S)NS(=O)(=O)c1ccc(-n2nc(C(=O)O)cc2C)cc1` has an inhibition in vivo at 400 µmol/kg of -6%. `CCCNC(=S)NS(=O)(=O)c1ccc(-n2nc(C(=O)O)cc2C)cc1` gave an inhibition in vivo at 400 µmol/kg of under 1%. `CCCCNC(=S)NS(=O)(=O)c1ccc(-n2nc(C(=O)O)cc2C)cc1` was tested, and the inhibition in vivo at 400 µmol/kg was under 1%. With `Cc1cc(C(=O)O)nn1-c1ccc(S(=O)(=O)NC(=S)NC2CCCCC2)cc1` the inhibition in vivo at 400 µmol/kg was 1%. Work on `Cc1cc(C(=O)O)nn1-c1ccc(S(=O)(=O)NC(=S)NCc2ccccc2)cc1` yielded an inhibition in vivo at 400 µmol/kg of under 2%. `Cc1cc(C(=O)O)nn1-c1ccc(S(=O)(=O)NC(=S)Nc2ccccc2)cc1` gave an inhibition in vivo at 400 µmol/kg of 0%.
